Values of other authors, collected in patent publication US20020192671A1, “Method and system for predicting the biological activity, including toxicology and toxicity, of substances” (priority 2001, published 2002).

| effect on cytochrome P450 4A levels (cytochrome P450 4A) | effect on P450 4F levels (P450 4F) | Compound | toxic effect at high non-therapeutic doses | effect of chronic treatment in rodents (rodents) |
| --- | --- | --- | --- | --- |
| – | – | CC(=O)Nc1ccc(O)cc1 [APAP, acetaminophen] | hepatic and renal failure | – |
| increase levels of cytochrome P450 4A | reduce the levels of P450 4F | CCOC(=O)C(C)(C)Oc1ccc(Cl)cc1 [Clofibrate] | – | hepatomegaly, an increase in hepatic peroxisomes |
